Measured values as given in patent publication US9005627B2, “Contiguous overlapping peptides for treatment of ragweed pollen allergy” (Anergis S.A., priority 2011, dated 2015).
Entries after “also recorded” stand apart in the source; their conditions may differ. No end group written: not given here.

Assays:
[1] = Solubility characteristics of COPs
Method: (§1) Peptides were resuspended either in water at 2 mg/ml or at 10 to 20 mg per ml in DMSO as indicated and frozen in aliquots.

[2] = pH 7
Method: as §1

[3] = tested on: Amb a 1 specific IgE in serum of subjects allergic to ragweed pollen; assay: Competition ELISA for IgE binding on nAmb a 1 coated plates; design: species or system human
Method: Recombinant Amb a 1 at 0.5 μg/ml (purified nAmb a 1 obtained from Protein Labs, San Diego) was coated overnight on 96-well Nunc Maxisorp® immunoplates (Life Technologies, Basel, Switzerland). After blocking with 1% BSA, either ten-fold, twenty-fold, thirty-fold or forty-fold dilutions of patient serum were added depending on specific IgE content. […] The sera of three allergic patients were selected for high IgE level and clear signal over background and used to test for competition with the peptides. Serial dilutions of each set of COPs, namely Set A; Set B and Set C, at indicted concentrations were pre-incubated with the three selected sera overnight at 4° C. Sera were then incubated on nAmb a 1 coated 96-well plates and residual IgE binding was determined as described above. nAmb a 1 dilutions were used as control for inhibition, whereas BSA was used as control for possible non-specific inhibition.

[4] = tested on: human basophils loaded with serum from a patient allergic to ragweed pollen; assay: Human basophil degranulation test (Basotest); type: cell-based
Method: BasotestR (ORPEGEN Pharma Heidelberg, Germany) was used for the quantitative determination of in vitro basophile degranulation. Heparinized blood (100 μl) from a non-allergic donor (ACT) was first incubated with serum (25 μl) from a patient allergic to ragweed pollen (FB) for 2 hours. The mix was further stimulated with buffer (reagent B) for 10 min at 37° C., and then with or without chemotactic peptide formylmethionylleucylphenylalanine (fMLP) as positive and negative controls respectively. Aliquots of blood were incubated in parallel with 100 μl allergen solution diluted in a saline solution for 20 min at 37° C. A dose response curve was performed with 250-12.5-0.625-0.031 nano-molar nAmb a 1 (added concentration) as well as starting 10 fold higher with AllerR mixed Sets (AllerR1-R6 and AllerR7-11). The activation process was stopped by incubating the blood samples at 4° C. for 5 min. The samples were then incubated for 20 min at +4° C.) (dark condition with 20 μl of phycoerythrin (PE)-conjugated anti-IgE and fluorescein isothyocyanate (FITC)-conjugated anti-gp53 (CD63). […] Cells were washed twice with PBS solution and resuspended in 200 μl of PBS solution and analyzed within 2 h by flow cytometry (FASC-LSRII-Becton Dickinson). The basophile population was gated on the PE anti-IgE positive cells and the expression of gp53 (CD63) was analyzed on this population. […]

[5] = tested on: Rat Basophilic Leukemia cells (RBL-30/25) expressing human IgE receptor, pre-loaded with sera from allergic patients; assay: RBL cell degranulation (beta-hexosaminidase release); type: cell-based; details: sera from panel of allergic patients (21 sera); FIG. 3
Method: Alternatively, degranulation was monitored using Rat Basophilic Leukemia cells (RBL) expressing parts of the human IgE receptor pre-loaded with sera from allergic patients (Vogel et al, Allergy 60: 1021-1028 (2005)). Essentially, RBL-30/25 cells were pre-incubated overnight with sera from patients from the region around Lyon (France, Biomnis) as well as from US (Plasma Lab International). To increase and stabilize the secretion of beta-hexosaminidase, 50% D2O was added to the Tyrode's buffer used for the assay. beta-hexosaminidase release after IgE crosslinking with an anti-IgE antibody was set to 100% release reflecting the ability of the cells to release beta-hexosaminidase upon IgE crosslinking. Amb a 1-specific release is given as percent of IgE mediated release.

[6] = tested on: Balb/c mice sensitized with nAmb a 1; assay: Anaphylactic response in sensitized mice (sensitization and challenge); type: in vivo
Method: Balb/c mice were sensitized by repeated injections of low doses (1 ug) of the allergen Amb a 1 by 5 subcutaneous injections at 14 days interval. […] Anaphylactic symptoms were scored using a scale of 6 grades (0, no symptoms to 5, death) adapted from Sade et al. J Investig Allergol Clin Immunol; 17(6): 379-385 (2007). Rectal temperature was monitored at 15 minutes intervals for 60 minutes after challenge using a digital thermometer. Citrate buffer was used as control for sensitization and challenge leading to two additional mice groups.

Molecule: VDAKLGTTRLTVSNSLFTQHQFVLLFGAGDENIEDRGMLATVAFNTFTDN [AllerR4.2]
- solubility ([1]; 5 mM HCl, 0.1 M NaOH and 0.1 M citrate buffer pH 5.6, pH 5.6): 1000 µg/mL
- Solubility (in words) ([1]; solvent as stated in the value): not soluble in H2O

Molecule: TSGAYNIIDGCWRGKADWAENRKALADCAQGFGKGTVGGKDGDIYTVTSELDDDVANPK (cysteines drawn unpaired) [AllerR1]
- solubility ([1]; water): 2000 µg/mL

Molecule: TIDGRGAKVEIINAGFTLNGVKNVIIHNINMHDVKVNPGGLIK [AllerR3]
- solubility ([1]; water): 2000 µg/mL

Molecule: DVANPKEGTLRFGAAQNRPLWIIFERDMVIRLDKEMVVNSDKTIDGRGAKVE [AllerR2]
- solubility ([1]; water): 2000 µg/mL

Molecule: FVLLFGAGDENIEDRGMLATVAFNTFTDNVDQRMPRCRHGFFQVVNNNYDKWGSYAIGGSASPTILSQGNRFCAPDERS [AllerR10]
- Conc. (solubility) [2]: 2000 µg/mL

Molecule: AGSDGDAISISGSSQIWIDHCSLSKSVDGLVDAKLGTTRLTVSNSLFTQHQFVLLFGAGDENIEDRGMLATVAFNTFTDN [AllerR4]
- IgE binding (in words) ([3]; as seen in competition ELISA): did not bind IgE
- IgE binding (in words) ([4]; as seen in degranulation assays): did not bind IgE

B1: nAmb a 1: ragweed pollen major allergen purified from ragweed pollen by Protein Labs; positive control (protein)
chain: AEDLQEILPVNETRRLTTSGAYNIIDGCWRGKADWAENRKALADCAQGFGKGTVGGKDGDIYTVTSELDDDVANPKEGTLRFGAAQNRPLWIIFERDMVIRLDKEMVVNSDKTIDGRGAKVEIINAGFTLNGVKNVIIHNINMHDVKVNPGGLIKSNDGPAAPRAGSDGDAISISGSSQIWIDHCSLSKSVDGLVDAKLGTTRLTVSNSLFTQHQFVLLFGAGDENIEDRGMLATVAFNTFTDNVDQRMPRCRHGFFQVVNNNYDKWGSYAIGGSASPTILSQGNRFCAPDERSKKNVLGRHGEAAAESMKWNWRTNKDVLENGAIFVASGVDPVLTPEQSAGMIPAEPGESALSLTSSAGVLSCQPGAPC
- Concentration range showing competition ([3]; panel of sera from 22 patients allergic to ragweed, data not shown): 10^−11 to 10^−8 molar
- Concentrations at which competition with serum IgE occurs ([3]; sera from three allergic patients (17794, 18342, FB), FIG. 1): 10^−11 to 10^−8 M
- Basophil degranulation (CD63 expression), in words ([4]; human basophils loaded with serum FB, FIG. 2): induce human basophil degranulation
- Degranulation of RBL cells, in words [5]: triggered degranulation to various extents; also recorded: triggered degranulation to various extend
- Anaphylactic symptom scores (scale 0 to 5) ([6]; challenge 7 days after last sensitizing injection, Amb a 1 30 μg/ml or AllerR 34 μg/ml, observed one hour, FIG. 5 panel A): significant increase in symptom scores already after 15 min
- Rectal (body) temperature after challenge ([6]; measured every 15 min, FIG. 5 panel B): marked decrease in rectal temperature
- IgE mean levels, increase over pre-immune following sensitization ([6]; mice sensitized by repeated s.c. injections of nAmb a 1, FIG. 5 panel C): about 500 fold
